Results from patent US11654138B2, “Therapeutic agents for treating and preventing autoimmune diseases and cancer and a screening method” (KING FAISAL UNIVERSITY, priority 2019, dated 2023).

Key:
[1] = target: T1, Arid5a binding to OX40 ADE-like stem loop (Mus musculus, UniProt Q3U108); assay: RNA-Arid5a binding assay; conditions: Flag-Arid5a-enriched HEK293T lysate, immunoblot, FIG. 4
T1 construct: expressed in transfected cells; host or cells: HEK293T (cell lysate)
T1 sequence (Q3U108 1-590): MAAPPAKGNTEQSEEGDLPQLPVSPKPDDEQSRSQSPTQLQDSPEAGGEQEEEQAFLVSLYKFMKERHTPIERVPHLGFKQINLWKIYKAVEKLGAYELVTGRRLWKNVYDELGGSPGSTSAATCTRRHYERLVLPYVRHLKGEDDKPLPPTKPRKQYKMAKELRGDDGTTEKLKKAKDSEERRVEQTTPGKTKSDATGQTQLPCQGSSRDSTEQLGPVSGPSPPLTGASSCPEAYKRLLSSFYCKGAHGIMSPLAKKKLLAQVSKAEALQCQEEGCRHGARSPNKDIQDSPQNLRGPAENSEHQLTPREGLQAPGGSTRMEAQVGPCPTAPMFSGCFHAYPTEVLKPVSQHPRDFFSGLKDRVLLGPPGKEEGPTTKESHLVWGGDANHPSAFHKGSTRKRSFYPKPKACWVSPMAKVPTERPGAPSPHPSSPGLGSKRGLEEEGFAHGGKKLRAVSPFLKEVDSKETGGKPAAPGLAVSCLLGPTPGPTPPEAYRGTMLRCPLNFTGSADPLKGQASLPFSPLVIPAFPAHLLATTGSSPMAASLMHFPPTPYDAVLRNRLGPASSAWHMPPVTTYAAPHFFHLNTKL
Description: An RNA-protein binding assay was performed to confirm that POE inhibits the physical binding of Arid5a to the (ADE)-like stem loop in the OX40 3′UTR. Briefly, a 3′-biotinylated OX40 ADE-like stem loop (RNA; 5′-[…]-3′) (SEQ ID NO: 2) was conjugated to streptavidin beads. The OX40 ADE-like stem loop/streptavidin bead conjugate was then mixed with Flag-Arid5a-enriched HEK293T cell lysate, washed, and proteins bound to RNA were eluted for immunoblot. Anti-Flag antibodies were used to detect Flag-Arid5a in the eluate by SDS-PAGE analysis.

CIA = assay: Collagen-induced arthritis (CIA) model; format: in vivo, C57BL mice
IMQ-induced psoriasis = IMQ-induced psoriasis model; format: in vivo, male BALB/c mice
Description: Experimental psoriasis was induced following a modified method described previously (Sun et al. 2013). To induce disease in male BALB/c mice (6-8 weeks; n=6), imiquimod (IMG; Sichuan Med-Shine Pharmaceutical) at 5% was applied topically at 20 mg/cm^2 on the inside of the right ear for 8 consecutive days. An evaluation system for assessment of erythema and thickness of the ear was developed. Erythema was assessed using a table with red […] (0-4) and ear thickness (0-4) measured using a digital caliber on days 2, 4, 6, and 8 after first IMQ application. The sum of the two parameters scores (ranging from 0-8) was used to indicate the overall clinical score. Treatment ointment was prepared by mixing 1 mg of DMSO-dissolved POE or its representative analogs including POE A2 or POE A3 with 20 gm of Vaseline Petroleum Jelly Original (vehicle, Unilever Inc.); the mixture was then incubated at room temperature overnight. From day 0 to day 8 the mice were treated topically with the treatment ointment (40 mg/cm^2) or Vaseline (IMQ/control). The mRNAs encoding Il6 and Il17a were isolated from whole biopsies of the ear (day 8) and reverse transcribed to make cDNA. The cDNA was then amplified by real-time PCR using TaqMan Gene Expression Assays (Mm00446190_ml, Mm00439618_ml, respectively; Applied Biosystems). The relative expression of mRNAs was calculated by the ΔΔCt method and presented relative to that of IMQ control mice.

[2] = topical ointment, day 8, FIG. 8B

O=C(CSc1nnc(-c2ccncc2)o1)c1ccccc1 [POE, 1-Phenyl-2-(5-pyridin-4-yl-[1,3,4]oxadiazol-2-ylsulfanyl)-ethanone]
Physical binding of Arid5a to OX40 ADE-like stem loop [1]: inhibited the physical binding of Arid5a to OX40 ADE-like stem loop in a concentration-dependent manner
CIA clinical scores (CIA; 0.25 mg i.p. on days 0, 3, 6, 9, 12, 15, 18, vs corn oil, FIG. 7A): comparably reduced CIA clinical scores
Serum level of IL-6 (CIA; 0.25 mg i.p., day 45, FIG. 7B): reduced serum levels of IL-6
Frequency of CD4+IL-17+ cells in the secondary lymphoid organs (CIA; 0.25 mg i.p., day 45, flow cytometry, FIG. 7C): reduced the frequency of CD4^+IL-17^+ cells
Clinical scores (erythema and thickness of the right ear) (IMQ-induced psoriasis; topical ointment 40 mg/cm^2 day 0 to 8, vs Vaseline, FIG. 8A): comparably reduced clinical scores
Il6 mRNA expression in whole biopsies of the right ear (IMQ-induced psoriasis; [2]): suppressed mRNA expression
Il17a mRNA expression in whole biopsies of the right ear (IMQ-induced psoriasis; [2]): suppressed mRNA expression
